Assay [1] concerns the target T1, B-RAF G466V (Homo sapiens, UniProt P15056, G466V).
T1 construct: expressed in transfected cells; host or cells: T-Rex 293 cells (Invitrogen #R71007)
The experiment in a line: Target protein degradation, assay D: T-Rex 293 cells, HA-BRAF_G466V, 384 well format. Type of assay: cell-based. The note with it: T-Rex 293 HA-BRAF_G466V cells, 24 hours, Examples 83-269; for DC50: Assay D; for Dmax: T-REx-293, Assay D. In outline: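 Degradation measured by high-content imaging of anti-HA immunofluorescence in fixed T-Rex 293 cells carrying inducible HA-BRAF G466V (1 ng/mL doxycycline), after 24 h PROTAC exposure at 37 °C over 300 nM–5 pM (1:3, 11 points, 0.5% DMSO). Outputs DC50 and Dmax as % of control; nuclei counts against DMSO wells gauge toxicity.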

In assay [2] the target is T2, B-RAF V600E (Homo sapiens, UniProt P15056, V600E).
T2 construct: expressed in transfected cells; host or cells: T-Rex 293 cells (Invitrogen #R71007)
T2 sequence (P15056 whole entry V600E): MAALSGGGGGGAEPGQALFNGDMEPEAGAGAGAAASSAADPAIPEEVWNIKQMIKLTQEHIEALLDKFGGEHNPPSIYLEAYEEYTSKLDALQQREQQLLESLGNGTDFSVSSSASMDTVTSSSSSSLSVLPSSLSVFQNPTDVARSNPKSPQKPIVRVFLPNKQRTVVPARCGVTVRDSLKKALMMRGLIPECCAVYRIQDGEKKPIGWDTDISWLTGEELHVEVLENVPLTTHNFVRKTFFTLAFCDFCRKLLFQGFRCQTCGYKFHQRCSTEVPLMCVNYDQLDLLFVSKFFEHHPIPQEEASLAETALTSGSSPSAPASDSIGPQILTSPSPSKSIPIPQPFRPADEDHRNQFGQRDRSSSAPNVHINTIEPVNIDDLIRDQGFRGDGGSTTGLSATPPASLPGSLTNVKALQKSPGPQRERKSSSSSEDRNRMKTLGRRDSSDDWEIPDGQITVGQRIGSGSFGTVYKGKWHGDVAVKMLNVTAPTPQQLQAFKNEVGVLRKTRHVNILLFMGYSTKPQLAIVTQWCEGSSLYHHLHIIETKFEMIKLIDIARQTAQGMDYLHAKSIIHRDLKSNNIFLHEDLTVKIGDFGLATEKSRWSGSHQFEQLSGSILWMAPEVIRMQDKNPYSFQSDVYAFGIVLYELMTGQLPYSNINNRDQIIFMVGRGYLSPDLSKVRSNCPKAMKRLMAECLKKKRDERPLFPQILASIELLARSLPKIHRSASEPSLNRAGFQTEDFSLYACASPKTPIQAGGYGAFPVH
The experiment in a line: Target protein degradation, assay C: T-Rex 293 cells, HA-BRAF_V600E, 384 well format. The settings on record: T-Rex 293 HA-BRAF_V600E cells, 24 hours, Examples 83-269; for DC50: Assay C; for Dmax: T-REx-293, Assay C. Type of assay: cell-based. In outline: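 After 24 h exposure to an 11-point 1:3 series (300 nM–5 pM, 0.5% DMSO), fixed T-Rex 293 cells carrying HA-BRAF V600E (induced with 1 ng/mL doxycycline) were stained anti-HA and imaged. DC50 and Dmax were derived from BRAF intensity relative to control, and cytotoxicity from nuclear counts.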

T1 sequence (P15056 whole entry G466V): as the sequence (P15056 whole entry V600E) above, with G466V, E600V counted along it

For the compound `N#Cc1c(NS(=O)(=O)N2CC[C@@H](F)C2)ccc(F)c1Oc1ccc2ncn(-c3ccc(N4CCC(CCCN5CCN(c6ccc7c(c6)C(=O)N(C6CCC(=O)NC6=O)C7=O)CC5)CC4)nc3)c(=O)c2c1` (stereo partly drawn) [Example 167, (3R)-N-{2-cyano-3-[(3-{6-[4-(3-{4-[2-(2,6-dioxopiperidin-3-yl)-1,3-dioxo-2,3-dihydro-1H-isoindol-5-yl]piperazin-1-yl}propyl)piperidin-1-yl]pyridin-3-yl}-4-oxo-3,4-dihydroquinazolin-6-yl)oxy]-4-fluorophenyl}-3-fluoropyrrolidine-1-sulfonamide], the half-maximal degradation concentration (DC50) – broadly, the concentration at which degradation of the target reaches its halfway point – in assay [1] lay in the range of 0.001 to 0.01 µM; in assay [2], 0.05 to 0.5 µM. The values for the maximal degradation (Dmax) in assay [1] and in assay [2] were no more than 35% and 35 to 70%, respectively.

With `N#Cc1c(NS(=O)(=O)N2CC[C@@H](F)C2)ccc(F)c1Oc1ccc2ncn(-c3ccc(N4CCN(c5cc(N6CCN(c7ccc8c(c7)C(=O)N(C7CCC(=O)NC7=O)C8=O)CC6)ncn5)CC4)nc3)c(=O)c2c1` (stereo partly drawn) [Example 168, (3R)-N-{2-cyano-3-[(3-(6-[4-(6-{4-[2-(2,6-dioxopiperidin-3-yl)-1,3-dioxo-2,3-dihydro-1H-isoindol-5-yl]piperazin-1-yl}pyrimidin-4-yl)piperazin-1-yl]pyridin-3-yl}-4-oxo-3,4-dihydroquinazolin-6-yl)oxy]-4-fluorophenyl}-3-fluoropyrrolidine-1-sulfonamide], the DC50 was 0.01 to 0.03 µM in assay [1] and 0.05 to 0.5 µM in assay [2]. Also, the Dmax – broadly, the largest share of the target that was removed – was 35 to 70% in assay [1] and no more than 35% in assay [2].

In assay [1], `N#Cc1c(NS(=O)(=O)N2CC[C@@H](F)C2)ccc(F)c1Oc1ccc2ncn(-c3ccc(N4CCC(CN5CCC6(CC5)CN(c5cccc7c5CN(C5CCC(=O)NC5=O)C7=O)C6)CC4)nc3)c(=O)c2c1` (stereo partly drawn) [Example 169, (3R)-N-{2-cyano-3-[(3-{6-[4-({2-[2-(2,6-dioxopiperidin-3-yl)-1-oxo-2,3-dihydro-1H-isoindol-4-yl]-2,7-diazaspiro[3.5]nonan-7-yl}methyl)piperidin-1-yl]pyridin-3-yl}-4-oxo-3,4-dihydroquinazolin-6-yl)oxy]-4-fluorophenyl}-3-fluoropyrrolidine-1-sulfonamide] gave a DC50 of 0.001 to 0.01 µM and a Dmax of no more than 35%. In assay [2], this compound came in with a DC50 of 0.05 to 0.5 µM and a Dmax of 35 to 70%.

In assay [1], `N#Cc1c(NS(=O)(=O)N2CC[C@@H](F)C2)ccc(F)c1Oc1ccc2ncn(-c3ccc(N4CC(CN5CCN(C6CCN(c7ccc8c(c7)C(=O)N(C7CCC(=O)NC7=O)C8=O)CC6)CC5)C4)nc3)c(=O)c2c1` (stereo partly drawn) [Example 170, (3R)-N-(2-cyano-3-{[3-(6-{3-[(4-{1-[2-(2,6-dioxopiperidin-3-yl)-1,3-dioxo-2,3-dihydro-1H-isoindol-5-yl]piperidin-4-yl}piperazin-1-yl)methyl]azetidin-1-yl}pyridin-3-yl)-4-oxo-3,4-dihydroquinazolin-6-yl]oxy}-4-fluorophenyl)-3-fluoropyrrolidine-1-sulfonamide] registered a DC50 of 0.001 to 0.01 µM and a Dmax of no more than 35%. In addition, in assay [2], the 50% degradation concentration (DC50) was in the range of 0.005 to 0.05 µM and the Dmax is no more than 35%.

In assay [1], `N#Cc1c(NS(=O)(=O)N2CC[C@@H](F)C2)ccc(F)c1Oc1ccc2ncn(-c3ccc(N4CCC(CN5CC6(C5)CN(c5ccc7c(c5)C(=O)N(C5CCC(=O)NC5=O)C7=O)C6)CC4)nc3)c(=O)c2c1` (stereo partly drawn) [Example 171, (3R)-N-{2-cyano-3-[(3-{6-[4-({6-[2-(2,6-dioxopiperidin-3-yl)-1,3-dioxo-2,3-dihydro-1H-isoindol-5-yl]-2,6-diazaspiro[3.3]heptan-2-yl}methyl)piperidin-1-yl]pyridin-3-yl}-4-oxo-3,4-dihydroquinazolin-6-yl)oxy]-4-fluorophenyl}-3-fluoropyrrolidine-1-sulfonamide] showed a DC50 of 0.001 to 0.01 µM and a maximal degradation (Dmax) of 35 to 70%. Further, in assay [2], the DC50 was 0.05 to 0.5 µM and the greatest degradation seen (Dmax) lay in the range of 35 to 70%.

For the origin of these results see US11957759B1, “Rapidly accelerated fibrosarcoma (RAF) degrading compounds and associated methods of use” (Arvinas Operations, Inc., priority 2022, dated 2024).
